Results as given in patent US20250228864A1, “THERAPIES FOR THE TREATMENT OF INFLAMMATORY BOWEL DISEASE” (Gilead Sciences, Inc., priority 2023, published 2025).

Test: First-in-human Part A: plasma PK after single ascending doses of Formula (III)
Assay type: in vivo
Procedure: This was a 3-part study to evaluate pharmacokinetics, safety, tolerability, and pharmacodynamics of the Formula (III) compound in healthy volunteers. • To understand the single-dose PK, safety, tolerability, and PD of Formula (III) and its active metabolite, subjects in Part A received a single dose of Formula (III) in the fasting state in a dose-escalating manner. […]
Formula (III) is a prodrug of Formula (I). Plasma concentrations of Formula (III) metabolite was determined, and PK parameters estimated. Plasma concentrations of Formula (III) and/or its metabolites were determined, and PK explored, as appropriate.
Concentrations of Formula (III) and the metabolite, in plasma samples were determined using fully validated high-performance liquid chromatography-tandem mass spectrometry (LC-MS/MS) bioanalytical methods. All samples were analyzed in the timeframe supported by frozen stability storage data. […]

plasma exposures of the prodrug Formula (III) compared with the active metabolite: negligible
SMILES: CCOC(=O)[C@H](Cc1ccc(-n2c(=O)c3ccncc3n(C)c2=O)c2ncccc12)NC(=O)c1c(C)cc(N2CCOC[C@@H]2C(F)(F)F)cc1F (atropisomer, axis not shown) [Formula (III)]
